Experimental findings from patent publication US20230123334A1, “AMINO LIPID COMPOUND, PREPARATION METHOD THEREFOR, AND APPLICATION THEREOF” (SHENZHEN SHENXIN BIOTECHNOLOGY CO., LTD., priority 2020, published 2023) are described below.

The structures appear in SMILES notation.

The subject of this assay is HEK293 cells. The experiment in a line: Preliminary screening as mRNA vectors, EGFP mRNA transfection of HEK293 cells. The assay is classed as cell-based. To be noted: EGFP mRNA 50 ng per well, 96-well plates; percentage of GFP fluorescent cells relative to total number of cells (Hoechst). The procedure:
Cell line: HEK293 cells (ATCC CRL-1573™)
Medium: DMEM supplemented with 10% fetal bovine serum (Invitrogen)
Screening: cell transfection on 96-well plates
Detection (readout): percentage of the number of GFP fluorescent cells relative to the total number of cells (the total number of cells was determined using nucleus dye Hoechst). Lipofectamine2000 (Invitrogen) was used as the positive control.
Method: the experimental method was basically the same with Example 4, and the mass of EGFP mRNA (TriLink) for transfection was 50 ng per well.

Turning to `CCCCCCCCCCCCCCCCSc1nc(NCCCCCCCCCCC)nc(NCCN(C)C)n1` [Compound D1S16N11], the “Absolute mRNA transfection efficiency in HEK293 cells” value (shortened to “Absolute mRNA transfection efficiency”) came to 19.8%.
In the case of `CCCCCCCCCCCCCCCCSc1nc(NCCCCCCCCCCCC)nc(NCCN(C)C)n1` [Compound D1S16N12] it was 3.0%; in that of `CCCCCCCCCCCCCCCCSc1nc(NCCCCCCCCCCCCC)nc(NCCN(C)C)n1` [Compound D1S16N13], 0.9%; in that of `CCCCCCCCCCCCCCCCSc1nc(NCCCCCCCCCCCCCCC)nc(NCCN(C)C)n1` [Compound D1S16N15], 1.4%.
In the case of `CCCCCCCCCCCCCCCCNc1nc(NCCN(C)C)nc(SCCCCCCCCCCCCCCCC)n1` [Compound D1S16N16] it was 0.9%; in that of `CCCCCCCCCCCCCCCCCCNc1nc(NCCN(C)C)nc(SCCCCCCCCCCCCCCCC)n1` [Compound D1S16N18], 0.5%.
In the case of `CCCCCCCCCCCCCCCCCCSc1nc(NCCCCCC)nc(NCCN(C)C)n1` [Compound D1S18N6] it was 42.6%.
For the molecule `CCCCCCCCCCCCCCCCCCSc1nc(NCCCCCCC)nc(NCCN(C)C)n1` [Compound D1S18N7], the “Absolute mRNA transfection efficiency” value is on record as 63.0%.
To `CCCCCCCCCCCCCCCCCCSc1nc(NCCCCCCCC)nc(NCCN(C)C)n1` [Compound D1S18N8] belongs 38.0%; to `CCCCCCCCCCCCCCCCCCSc1nc(NCCCCCCCCC)nc(NCCN(C)C)n1` [Compound D1S18N9], 30.3%; to `CCCCCCCCCCCCCCCCCCSc1nc(NCCCCCCCCCCC)nc(NCCN(C)C)n1` [Compound D1S18N11], 1.3%.
In the case of `CCCCCCCCCCCCCCCCCCSc1nc(NCCCCCCCCCCCC)nc(NCCN(C)C)n1` [Compound D1S18N12] it was 2.3%; in that of `CCCCCCCCCCCCCCCCCCSc1nc(NCCCCCCCCCCCCC)nc(NCCN(C)C)n1` [Compound D1S18N13], 0.2%.
In the case of `CCCCCCCCCCCCCCCCCCSc1nc(NCCCCCCCCCCCCCCC)nc(NCCN(C)C)n1` [Compound D1S18N15] it was 0.5%; in that of `CCCCCCCCCCCCCCCCCCSc1nc(NCCCCCCCCCCCCCCCC)nc(NCCN(C)C)n1` [Compound D1S18N16], 0.1%.
For `CCCCCCCCCCCCCCCCCCNc1nc(NCCN(C)C)nc(SCCCCCCCCCCCCCCCCCC)n1` [Compound D1S18N18], the “Absolute mRNA transfection efficiency” value was 0.0%.
To `CCCCCCNc1nc(NCCN2CCOCC2)nc(SCCCCCC)n1` [Compound D2S6N6] belongs 0.4%; to `CCCCCCCNc1nc(NCCN2CCOCC2)nc(SCCCCCC)n1` [Compound D2S6N7], 2.7%.
In the case of `CCCCCCCCNc1nc(NCCN2CCOCC2)nc(SCCCCCC)n1` [Compound D2S6N8], the “Absolute mRNA transfection efficiency” value stood at 0.0%.
To `CCCCCCCCCNc1nc(NCCN2CCOCC2)nc(SCCCCCC)n1` [Compound D2S6N9] belongs 0.8%.
To `CCCCCCCCCCCNc1nc(NCCN2CCOCC2)nc(SCCCCCC)n1` [Compound D2S6N11] belongs 0.8%; to `CCCCCCCCCCCCNc1nc(NCCN2CCOCC2)nc(SCCCCCC)n1` [Compound D2S6N12], 0.8%; to `CCCCCCCCCCCCCNc1nc(NCCN2CCOCC2)nc(SCCCCCC)n1` [Compound D2S6N13], 0.2%.
As for `CCCCCCCCCCCCCCCNc1nc(NCCN2CCOCC2)nc(SCCCCCC)n1` [Compound D2S6N15], the “Absolute mRNA transfection efficiency” value is given as 1.2%.
In the case of `CCCCCCCCCCCCCCCCNc1nc(NCCN2CCOCC2)nc(SCCCCCC)n1` [Compound D2S6N16] it was 2.2%; in that of `CCCCCCCCCCCCCCCCCCNc1nc(NCCN2CCOCC2)nc(SCCCCCC)n1` [Compound D2S6N18], 4.5%.
Regarding `CCCCCCSc1nc(NCCN2CCOCC2)nc(SCCCCCC)n1` [Compound D2S6S6], the “Absolute mRNA transfection efficiency” value is reported as 2.2%.
With `CCCCCCCSc1nc(NCCN2CCOCC2)nc(SCCCCCC)n1` [Compound D2S6S7], the “Absolute mRNA transfection efficiency” value was determined as 0.6%.
For `CCCCCCCCSc1nc(NCCN2CCOCC2)nc(SCCCCCC)n1` [Compound D2S6S8], the “Absolute mRNA transfection efficiency” value turned out to be 5.0%.
As for `CCCCCCCCCSc1nc(NCCN2CCOCC2)nc(SCCCCCC)n1` [Compound D2S6S9], the “Absolute mRNA transfection efficiency” value is listed as 6.3%.
For `CCCCCCCCCCSc1nc(NCCN2CCOCC2)nc(SCCCCCC)n1` [Compound D2S6S10], the “Absolute mRNA transfection efficiency” value is recorded as 4.6%.
In the case of `CCCCCCCCCCCSc1nc(NCCN2CCOCC2)nc(SCCCCCC)n1` [Compound D2S6S11] it was 7.4%.
To `CCCCCCCCCCCCSc1nc(NCCN2CCOCC2)nc(SCCCCCC)n1` [Compound D2S6S12] belongs 1.5%; to `CCCCCCCCCCCCCCSc1nc(NCCN2CCOCC2)nc(SCCCCCC)n1` [Compound D2S6S14], 6.6%.
In the case of `CCCCCCCCCCCCCCCSc1nc(NCCN2CCOCC2)nc(SCCCCCC)n1` [Compound D2S6S15] it was 6.9%.
On to `CCCCCCCCCCCCCCCCSc1nc(NCCN2CCOCC2)nc(SCCCCCC)n1` [Compound D2S6S16], for which the “Absolute mRNA transfection efficiency” value worked out at 16.0%.
In the case of `CCCCCCCCCCCCCCCCCCSc1nc(NCCN2CCOCC2)nc(SCCCCCC)n1` [Compound D2S6S18] it was 12.1%; in that of `CCCCCCCSc1nc(NCCCCCC)nc(NCCN2CCOCC2)n1` [Compound D2S7N6], 1.2%.
On to `CCCCCCCNc1nc(NCCN2CCOCC2)nc(SCCCCCCC)n1` [Compound D2S7N7], for which the “Absolute mRNA transfection efficiency” value is recorded as 1.1%.
To `CCCCCCCCNc1nc(NCCN2CCOCC2)nc(SCCCCCCC)n1` [Compound D2S7N8] belongs 1.0%; to `CCCCCCCCCNc1nc(NCCN2CCOCC2)nc(SCCCCCCC)n1` [Compound D2S7N9], 8.7%; to `CCCCCCCCCCCNc1nc(NCCN2CCOCC2)nc(SCCCCCCC)n1` [Compound D2S7N11], 16.0%.
Consider `CCCCCCCCCCCCNc1nc(NCCN2CCOCC2)nc(SCCCCCCC)n1` [Compound D2S7N12], for which the “Absolute mRNA transfection efficiency” value is recorded as 3.0%.
To `CCCCCCCCCCCCCNc1nc(NCCN2CCOCC2)nc(SCCCCCCC)n1` [Compound D2S7N13] belongs 6.2%; to `CCCCCCCCCCCCCCCNc1nc(NCCN2CCOCC2)nc(SCCCCCCC)n1` [Compound D2S7N15], 3.1%; to `CCCCCCCCCCCCCCCCNc1nc(NCCN2CCOCC2)nc(SCCCCCCC)n1` [Compound D2S7N16], 2.6%.
In the case of `CCCCCCCCCCCCCCCCCCNc1nc(NCCN2CCOCC2)nc(SCCCCCCC)n1` [Compound D2S7N18] it was 5.2%; in that of `CCCCCCCSc1nc(NCCN2CCOCC2)nc(SCCCCCCC)n1` [Compound D2S7S7], 4.9%; in that of `CCCCCCCCSc1nc(NCCN2CCOCC2)nc(SCCCCCCC)n1` [Compound D2S7S8], 35.6%.
To `CCCCCCCCCSc1nc(NCCN2CCOCC2)nc(SCCCCCCC)n1` [Compound D2S7S9] belongs 37.7%.
As to `CCCCCCCCCCSc1nc(NCCN2CCOCC2)nc(SCCCCCCC)n1` [Compound D2S7S10], the “Absolute mRNA transfection efficiency” value was found to be 32.4%.
To `CCCCCCCCCCCSc1nc(NCCN2CCOCC2)nc(SCCCCCCC)n1` [Compound D2S7S11] belongs 24.2%; to `CCCCCCCCCCCCSc1nc(NCCN2CCOCC2)nc(SCCCCCCC)n1` [Compound D2S7S12], 19.2%; to `CCCCCCCCCCCCCCSc1nc(NCCN2CCOCC2)nc(SCCCCCCC)n1` [Compound D2S7S14], 11.0%.
Take `CCCCCCCCCCCCCCCSc1nc(NCCN2CCOCC2)nc(SCCCCCCC)n1` [Compound D2S7S15]: the “Absolute mRNA transfection efficiency” value turned out to be 17.5%.
To `CCCCCCCCCCCCCCCCSc1nc(NCCN2CCOCC2)nc(SCCCCCCC)n1` [Compound D2S7S16] belongs 13.9%; to `CCCCCCCCCCCCCCCCCCSc1nc(NCCN2CCOCC2)nc(SCCCCCCC)n1` [Compound D2S7S18], 5.1%; to `CCCCCCCCSc1nc(NCCCCCC)nc(NCCN2CCOCC2)n1` [Compound D2S8N6], 0.7%.
For the molecule `CCCCCCCCSc1nc(NCCCCCCC)nc(NCCN2CCOCC2)n1` [Compound D2S8N7], the “Absolute mRNA transfection efficiency” value is 0.9%.
To `CCCCCCCCNc1nc(NCCN2CCOCC2)nc(SCCCCCCCC)n1` [Compound D2S8N8] belongs 0.9%; to `CCCCCCCCCNc1nc(NCCN2CCOCC2)nc(SCCCCCCCC)n1` [Compound D2S8N9], 8.3%.
To `CCCCCCCCCCCNc1nc(NCCN2CCOCC2)nc(SCCCCCCCC)n1` [Compound D2S8N11] belongs 8.1%.
